The values below are quoted from earlier work in the PKSmart pharmacokinetics tables (Seal et al. 2025).

This series in a line: Lombardo, Berellini, Obach 2018, Drug Metab Dispos 46:1466, doi 10.1124/dmd.118.082966. Particulars: human; for MRT / Vd / clearance / half-life: in vivo, iv; for fraction unbound: plasma.

SMILES strings stand for the structures. *1 amine or outer side, *2 acyl side, *3 side chain or, on linkers, in order; H or OH if unused. Where a SMILES comes first, the peptide text is derived from it. Bridges are numbered along the chain shown (N, C = ends). [ ]: non-standard residue; d: D form. ξ: configuration not given here. ξPro(4R-OH) = O=C(O)C1C[C@@H](O)CN1; ξ2Thi = NC(Cc1cccs1)C(=O)O; ξR = N=C(N)NCCCC(N)C(=O)O; Iva = CC[C@](C)(N)C(=O)O; ξF = NC(Cc1ccccc1)C(=O)O; X3 = O=C(CCC[*:2])[*:1]; ξN = NC(=O)CC(N)C(=O)O; ξC = NC(CS)C(=O)O

Consider `CSCCC(N)C(=O)N[C@@]1(C(=O)O)CS(=O)(=O)[C@H]2C(C(=O)O)[C@H]21` (stereo partly drawn), for which the MRT – broadly, a mean duration of stay, worked out from the concentration-time curve – is 0.75 h; the Vd – broadly, a proportionality between amount in the body and measured concentration, not a real space – was 0.44 L/kg; the clearance (as a rule, the rate of elimination divided by the concentration) is 9.73 mL/min/kg; the half-life (usually the time in which the quantity being followed falls by half) was 0.84 h.
On to `NCCCCC(NC(CCc1ccccc1)C(=O)O)C(=O)N1CCCC1C(=O)O` (stereo not drawn), for which the clearance is 1.2 mL/min/kg.
On to `Cc1cnc(C(=O)NC2CCCCC/C=C\[C@@H]3C[C@@]3(C(=O)NS(=O)(=O)C3CC3)NC(=O)C3C[C@@H](Oc4nc5ccccc5c5ccccc45)CN3C2=O)cn1` (stereo partly drawn), for which the MRT was 3.96 h, the distribution volume (Vd) was 1.37 L/kg, the clearance is 5.74 mL/min/kg and the half-life is 8.71 h. Further, the unbound share (fraction unbound) (usually the share of the substance not bound to proteins or other matrix) was 0.022.
Regarding `CC(C(O)c1ccc(O)cc1)N1CCC(Cc2ccccc2)CC1` (stereo not drawn), the MRT is 4.9 h, the Vd was 19 L/kg, the clearance is 64.6 mL/min/kg and the half-life is 4.32 h.
As for `CCN(CC)CCCC(C)Nc1ccnc2cc(Cl)ccc12` (stereo not drawn), the mean residence time (MRT) is 740 h, the Vd was 140 L/kg, the clearance is 4.1 mL/min/kg and the half-life was 570 h.
On to `CON=C(C(=O)NC1C(=O)N2C(C(=O)O)=C(CSc3cnns3)CS[C@H]12)c1csc(N)n1` (stereo partly drawn), for which the MRT was 0.82 h, the Vd is 0.2 L/kg, the clearance was 4.1 mL/min/kg and the half-life was 1.14 h. The fraction unbound is 0.12.
Regarding `CN(C)CCCN1c2ccccc2Sc2ccccc21`, the MRT was 9.6 h, the volume of distribution (Vd) is 8.1 L/kg, the clearance was 14 mL/min/kg and the half-life is 7.9 h. The fraction unbound was 0.11.
Consider `O[C@@H](CNC[C@H](O)[C@H]1CCc2cc(F)ccc2O1)[C@@H]1CCc2cc(F)ccc2O1`, for which the mean residence time (MRT) was 13 h, the distribution volume (Vd) is 11 L/kg, the clearance was 14 mL/min/kg and the half-life is 10 h. Besides, the fraction unbound was 0.02.
For the compound `C=CCC1(C(C)C#CCC)C(=O)NC(=O)N(C)C1=O` (stereo not drawn), the mean residence time (MRT) is 1.5 h, the distribution volume (Vd) was 1.1 L/kg, the clearance is 12 mL/min/kg and the half-life is 1.6 h. Also, the fraction unbound was 0.27.
For `C[C@@H](NCCCc1cccc(C(F)(F)F)c1)c1cccc2ccccc12`, the mean residence time MRT is 16 h, the Vd is 17.6 L/kg, the clearance is 18.3 mL/min/kg and the half-life is 19.9 h. Also, the fraction unbound is 0.05.
As to `CN(C)CCCO[C@@H]1[C@H]2OC(C)(C)O[C@H]2O[C@@H]1[C@H](O)CO`, the MRT was 5 h, the Vd is 1.04 L/kg, the clearance is 3.48 mL/min/kg and the half-life is 4.07 h. Also, the unbound share (fraction unbound) is 0.97.
Take `CCC(=O)OCC(=O)[C@@]1(OC(=O)CC)[C@@H](C)C[C@H]2[C@@H]3CC=C4CC(=O)C=C[C@]4(C)[C@@]3(Cl)[C@@H](O)C[C@@]21C`: the mean residence time MRT was 0.1 h, the distribution volume (Vd) is 0.29 L/kg, the clearance was 36 mL/min/kg and the half-life was 0.5 h. In addition, the unbound share (fraction unbound) was 0.13.
Take `COc1ccc(/C=C\c2cc(OC)c(OC)c(OC)c2)cc1OP(=O)(O)O`: the MRT was 0.3 h, the Vd is 0.11 L/kg, the clearance is 5.86 mL/min/kg and the half-life was 0.47 h. Further, the fraction unbound is 0.23.
Regarding `CC[C@]1(C)NC(=O)C(Cc2cccs2)NC(=O)C(Cc2ccccc2)NC(=O)CCCSCC(C(=O)N2C[C@H](O)CC2C(=O)NC(CCCNC(=N)N)C(=O)NCC(N)=O)NC(=O)C(CC(N)=O)NC1=O` (stereo partly drawn) ([ξF][ξ2Thi][Iva][ξN][ξC][ξPro(4R-OH)][ξR]G-NH2; linker N-5 via X3), the MRT is 5.63 h, the Vd is 0.31 L/kg, the clearance is 0.87 mL/min/kg and the half-life is 4.28 h.
On to `CC[C@@]1(O)C[C@H](O[C@@H]2C[C@H](N3CCOCC3)[C@H](O)[C@H](C)O2)c2c(O)c3c(c(O)c2[C@H]1O)C(=O)c1cccc(O)c1C3=O`, for which the mean residence time (MRT) is 8 h, the Vd was 20.9 L/kg, the clearance was 42.8 mL/min/kg and the half-life is 10.7 h. The unbound share (fraction unbound) is 0.09.
Regarding `CC[C@H](C)[C@@H]([C@@H](CC(=O)N1CCC[C@H]1[C@H](OC)C(C)C(=O)NCCc1ccccc1)OC)N(C)C(=O)C(NC(=O)C(C(C)C)N(C)C)C(C)C` (stereo partly drawn), the mean residence time (MRT) is 4.6 h, the Vd is 0.42 L/kg, the clearance was 1.6 mL/min/kg and the half-life is 5.67 h.
For the compound `CC(C)=CCC[C@]1(C)C=Cc2c(O)c3c(c(CC=C(C)C)c2O1)O[C@]12C(=CC4C[C@@H]1C(C)(C)O[C@@]2(C/C=C(/C)C(=O)O)C4=O)C3=O`, the mean residence time (MRT) is 13.3 h, the Vd was 0.99 L/kg, the clearance is 1.24 mL/min/kg and the half-life was 14.6 h.
On to `CCCn1c(=O)c2[nH]c(C34CC5CC(CC3C5)C4)nc2n(CCC)c1=O`, for which the MRT was 14.1 h, the Vd was 4.3 L/kg, the clearance was 5 mL/min/kg and the half-life was 18.1 h.
Consider `C[N+](C)(O)CCCN1c2ccccc2CCc2ccccc21`, for which the MRT was 2.6 h, the Vd was 1.9 L/kg, the clearance is 12 mL/min/kg and the half-life is 1.8 h.
As for `O=C(O[C@H]1CC2CC[C@@H](C1)[N+]21CCCC1)C(O)(c1ccccc1)c1ccccc1`, the mean residence time (MRT) is 6.1 h, the Vd was 5.1 L/kg, the clearance was 13.9 mL/min/kg and the half-life was 5 h. The unbound share (fraction unbound) was 0.33.
For `CCOCCn1c(C2CCN(CCc3ccc(C(C)(C)C(=O)O)cc3)CC2)nc2ccccc21`, the mean residence time MRT was 3.56 h, the distribution volume (Vd) is 0.61 L/kg, the clearance was 2.87 mL/min/kg and the half-life was 5.16 h. In addition, the unbound share (fraction unbound) was 0.13.
With `CN(C)CCCOc1nn(Cc2ccccc2)c2ccccc12`, the MRT is 11.4 h, the distribution volume (Vd) is 1.53 L/kg, the clearance was 2.28 mL/min/kg and the half-life is 8.1 h. For the same compound, the fraction unbound is 0.8.
Regarding `COC(=O)Nc1nc2cc(C(=O)c3ccccc3)ccc2[nH]1`, the mean residence time (MRT) is 1.3 h, the Vd is 1.2 L/kg, the clearance is 15 mL/min/kg and the half-life is 1.1 h.
Consider `COc1cc(N)cn[n+]1-c1ccccc1`, for which the MRT was 13 h, the volume of distribution (Vd) is 4 L/kg, the clearance was 5.1 mL/min/kg and the half-life was 14.1 h.
With `Cc1[nH]c(=O)c(C#N)cc1-c1ccncc1`, the MRT was 0.67 h, the Vd was 0.25 L/kg, the clearance is 6.2 mL/min/kg and the half-life was 0.8 h.
As to `CCCCN1CCCC1C(=O)Nc1c(C)cc(C)cc1C` (stereo not drawn), the MRT is 1.51 h, the Vd was 1.73 L/kg, the clearance is 19.2 mL/min/kg and the half-life is 1.58 h.
As for `CN1C(=O)CC[C@H]1c1cccnc1`, the mean residence time (MRT) was 21 h, the distribution volume (Vd) was 1.1 L/kg, the clearance is 0.89 mL/min/kg and the half-life is 17 h.
